Laboratory results from PubChem BioAssay (NCI).
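Compound exposure: 48 hours, 5 concentrations, 96-well plates. TGI: concentration producing complete growth inhibition.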

Legend:
Experiment in all cases: NCI anticancer screen, dose series, 48 h
NCI-H460 lung = system: NCI-H460 lung
OVCAR-8 ovarian = system: OVCAR-8 ovarian
MALME-3M melanoma = system: MALME-3M melanoma
SK-MEL-28 melanoma = system: SK-MEL-28 melanoma
UACC-257 melanoma = system: UACC-257 melanoma
A549 NSCLC = system: A549 NSCLC
OVCAR-5 ovarian = system: OVCAR-5 ovarian
NCI/ADR-RES ovarian = system: NCI/ADR-RES ovarian
MDA-N = system: MDA-N
SR leukemia = system: SR leukemia

Compound | TGI (NCI-H460 lung) [µM] | TGI (OVCAR-8 ovarian) [µM] | TGI (MALME-3M melanoma) [µM] | TGI (SK-MEL-28 melanoma) [µM] | TGI (UACC-257 melanoma) [µM] | TGI (A549 NSCLC) [µM] | TGI (OVCAR-5 ovarian) [µM] | TGI (NCI/ADR-RES ovarian) [µM] | TGI (MDA-N) [µM] | TGI (SR leukemia) [µM]
Nc1ncc2c(n1)-c1ccccc1OC2 | > 100 | > 100 | > 100 | > 100 | > 100 | > 100 | > 100 | > 100 |  | 
ClC1=C(Cl)C2OC3C=CCC3OC2C(Cl)=C1Cl (stereo not drawn) | > 100 | > 100 |  | > 100 | > 100 |  | > 100 | > 100 | > 100 | > 100
Clc1ncnc2c1nc(C#Cc1ccccc1)n2C1CCCCO1 (stereo not drawn) | 8.09 | 12.4 | 3.91 | 4.78 | 6.01 | 4.04 | 4.84 | 7.01 | 8.12 | 
OCC(S)CS.[Bi] (stereo not drawn) | > 100 | 52.3 | 17.6 | 28.3 | 27.9 | > 100 | 42.5 | > 100 | 34.4 | > 100
O=S(=O)(O)c1cc(N=[N+]([O-])c2ccc(N=Nc3ccccc3)cc2S(=O)(=O)O)ccc1/C=C/c1ccc(N=[N+]([O-])c2ccc(N=Nc3ccccc3)cc2S(=O)(=O)O)cc1S(=O)(=O)O | > 100 | > 100 | > 100 | > 100 | > 100 | > 100 | > 100 | > 100 |  | 
Cc1ccc2c(c1)Nc1ccccc1P2(=O)O | > 100 | > 100 | > 100 | > 100 | > 100 | > 100 | > 100 | > 100 | > 100 | > 100
Cc1oc2nc(N(C)C)n3cnnc3c2c1C | > 100 | > 100 |  | > 100 | > 100 | > 100 | > 100 | > 100 |  | > 100
Nc1ccc(C(=O)O)cc1 | > 100 | > 100 | > 100 | > 100 | > 100 | > 100 | > 100 | > 100 | > 100 | > 100
CCCCCCCCCCCCCCCCCCNc1nc(=O)n(C2CC(OP(=O)(O)OCC3OC(n4cc(F)c(=O)[nH]c4=O)CC3O)C(CO)O2)cc1F (stereo not drawn) |  | 73.3 |  | > 100 | > 100 | > 100 | > 100 | > 100 |  | 35.1
O=C(NNc1nc(-c2ccccc2)cs1)Nc1ccccc1 | 50.6 | 46.8 | > 100 | 85.6 | 59.3 | 48 | > 100 | 45.8 | 65.8 | 
NS(=O)(=O)c1ccc(NCc2nc3ccccc3[nH]2)cc1 | > 100 | > 100 | > 100 |  | > 100 | > 100 | > 100 | > 100 | > 100 | 
CC(C)N1[C@@H]2CCCC[C@H]2N(C(C)C)[P+]1=O | > 100 | > 100 |  |  | > 100 | > 100 | > 100 | > 100 | > 100 | > 100
